Laboratory results from patent US11926626B2, “Heterocyclic GLP-1 agonists” (Gasherbrum Bio, Inc., priority 2020, dated 2024).

Each compound was assayed against GLP-1 Receptor (Homo sapiens, UniProt P43220) (assay: GLP-1R agonist cAMP stimulation assay (HEK293/GLP1R/CRE-Luc cells, HTRF cAMP)). Conditions: 30 min, 37° C.
Type: cell-based
Procedure: Activation of GLP-1 receptor is known to stimulate cyclic AMP (cAMP) production in cells which indicates primary coupling to the Gαs subunit of the G protein heterotrimeric complex.
To optimize functional activity directed toward Gαs coupling, a HEK293/CRE-Luc cell line developed by HDB stably expressing the GLP-1 Receptor was used. […] 1×10^5 cells/mL HEK293/GLP1R/CRE-LUC(HD Biosciences) cell suspensions prepared with assay buffer[DPBS containing 0.5 mM IBMX (Sigma, Cat #I5879) and 0.1% BSA (GENVIEW, Cat #FA016-100g)], 10 uL cell suspensions were added to each well of previous generated assay plate which already contains 50 nl compound at 200×concentration using ThermoFisher Multidrop Combi (1000 cells/well). Seal the plate and incubate at 37° C. with 5% CO2 for 30 min.
After incubation the cAMP assay signal was generated using cAMP dynamic 2 Kit (Cisbio). 5 μL cAMP-d2 working solution was added to each well, followed with 5 μL Anti-cAMP antibody-cryptate working solution added to each well using ThermoFisher Multidrop Combi. Incubate at room temperature for 1 hour protected from light.

GLP-1 Receptor, sequence (P43220 24-463): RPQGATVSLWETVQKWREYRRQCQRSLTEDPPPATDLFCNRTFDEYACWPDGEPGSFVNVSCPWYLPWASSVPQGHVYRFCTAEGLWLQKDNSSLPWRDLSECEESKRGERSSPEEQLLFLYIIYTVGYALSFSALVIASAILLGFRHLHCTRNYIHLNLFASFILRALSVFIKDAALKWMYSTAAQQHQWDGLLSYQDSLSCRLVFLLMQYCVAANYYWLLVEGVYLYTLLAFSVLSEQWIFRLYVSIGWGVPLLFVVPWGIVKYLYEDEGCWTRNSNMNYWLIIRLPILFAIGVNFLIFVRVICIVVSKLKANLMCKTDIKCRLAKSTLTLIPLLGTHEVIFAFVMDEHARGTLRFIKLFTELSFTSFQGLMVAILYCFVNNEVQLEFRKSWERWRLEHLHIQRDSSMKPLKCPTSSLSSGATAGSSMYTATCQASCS

`O=C(O)c1ccc2nc(CN3CCC(C(F)(F)c4cccc(Cc5ccc(Cl)cc5F)n4)CC3)n(C[C@@H]3CCO3)c2n1` [Compound 173a, 2-{[4-({6-[(4-chloro-2-fluorophenyl)methyl]pyridin-2-yl}difluoromethyl)piperidin-1-yl]methyl}-3-{[(2S)-oxetan-2-yl]methyl}-3H-imidazo[4,5-b]pyridine-5-carboxylic acid] was tested. Which “GLP1R cAMP Stimulation DR: pEC50” value did it give?
The value was 8.4.

Same assay, conditions: HEK293/CRE-Luc cells stably expressing GLP-1 Receptor; 30 min, 37° C.

How did the “GLP1R cAMP Stimulation DR: pEC50” value turn out when `O=C(O)c1ccc2nc(C[C@H]3CC[C@@H](Oc4cccc(Cc5ccc(Cl)cc5F)n4)CC3)n(C[C@@H]3CCO3)c2n1` [Compound 174a, 3-{[(2S)-oxetan-2-yl]methyl}-2-{[cis-4-({6-[(4-chloro-2-fluorophenyl)methyl]pyridin-2-yl}oxy)cyclohexyl]methyl}-3H-imidazo[4,5-b]pyridine-5-carboxylic acid] was run?
Its value is 7.5.

With `O=C(O)c1ccc2nc(C[C@H]3CC[C@H](Oc4cccc(Cc5ccc(Cl)cc5F)n4)CC3)n(C[C@@H]3CCO3)c2n1` [Compound 174b, 3-{[(2S)-oxetan-2-yl]methyl}-2-{[trans-4-({6-[(4-chloro-2-fluorophenyl)methyl]pyridin-2-yl}oxy)cyclohexyl]methyl}-3H-imidazo[4,5-b]pyridine-5-carboxylic acid] as the compound, how does the “GLP1R cAMP Stimulation DR: pEC50” value read?
The value was 9.9.

Which “GLP1R cAMP Stimulation DR: pEC50” value does the source give for `O=C(O)c1ccc2nc(C[C@H]3CC[C@@H](Oc4ccnc(Cc5ccc(Cl)cc5F)n4)CC3)n(C[C@@H]3CCO3)c2n1` [Compound 175a, 3-{[(2S)-oxetan-2-yl]methyl}-2-{[cis-4-({2-[(4-chloro-2-fluorophenyl)methyl]pyrimidin-4-yl}oxy)cyclohexyl]methyl}-3H-imidazo[4,5-b]pyridine-5-carboxylic acid] here?
Its value is 6.6.

Which “GLP1R cAMP Stimulation DR: pEC50” value does the source give for `O=C(O)c1ccc2nc(C[C@H]3CC[C@H](Oc4ccnc(Cc5ccc(Cl)cc5F)n4)CC3)n(C[C@@H]3CCO3)c2n1` [Compound 175b, 3-{[(2S)-oxetan-2-yl]methyl}-2-{[trans-4-({2-[(4-chloro-2-fluorophenyl)methyl]pyrimidin-4-yl}oxy)cyclohexyl]methyl}-3H-imidazo[4,5-b]pyridine-5-carboxylic acid] here?
The value was 10.2.

With `O=C(O)c1ccc2nc(C[C@H]3CC[C@H](Oc4ccnc(Cc5ccc(Cl)cc5)n4)CC3)n(C[C@@H]3CCO3)c2c1` [Compound 176a, 1-{[(2S)-oxetan-2-yl]methyl}-2-{[trans-4-({2-[(4-chlorophenyl)methyl]pyrimidin-4-yl}oxy)cyclohexyl]methyl}-1H-1,3-benzodiazole-6-carboxylic acid] as the compound, how does the “GLP1R cAMP Stimulation DR: pEC50” value read?
Its value is 9.4.

How did the “GLP1R cAMP Stimulation DR: pEC50” value turn out when `O=C(O)c1ccc2nc(C[C@H]3CC[C@H](Oc4ccnc(Cc5ccc(Cl)cc5)n4)CC3)n(C[C@@H]3CCO3)c2n1` [Compound 177a, 3-{[(2S)-oxetan-2-yl]methyl}-2-{[trans-4-({2-[(4-chlorophenyl)methyl]pyrimidin-4-yl}oxy)cyclohexyl]methyl}-3H-imidazo[4,5-b]pyridine-5-carboxylic acid] was run?
Its value is 10.4.

With `COCCn1c(C[C@H]2CC[C@H](Oc3ccnc(Cc4ccc(Cl)cc4)n3)CC2)nc2ccc(C(=O)O)nc21` [Compound 179a, 3-(2-methoxyethyl)-2-{[trans-4-({2-[(4-chlorophenyl)methyl]pyrimidin-4-yl}oxy)cyclohexyl]methyl}-3H-imidazo[4,5-b]pyridine-5-carboxylic acid] as the compound, how does the “GLP1R cAMP Stimulation DR: pEC50” value read?
Its value is 8.6.

For `Cn1c(C[C@H]2CC[C@H](Oc3ccnc(Cc4ccc(Cl)cc4)n3)CC2)nc2ccc(C(=O)O)nc21` [Compound 180a, 3-methyl-2-{[trans-4-({2-[(4-chlorophenyl)methyl]pyrimidin-4-yl}oxy)cyclohexyl]methyl}-3H-imidazo[4,5-b]pyridine-5-carboxylic acid], which “GLP1R cAMP Stimulation DR: pEC50” value is on record?
The value was 8.6.

With `O=C(O)c1ccc2nc(C[C@H]3CC[C@H](Oc4cccc(Cc5ccc(Cl)cc5)n4)CC3)n(C[C@@H]3CCO3)c2n1` [Compound 181a, 3-{[(2S)-oxetan-2-yl]methyl}-2-{[trans-4-({6-[(4-chlorophenyl)methyl]pyridin-2-yl}oxy)cyclohexyl]methyl}-3H-imidazo[4,5-b]pyridine-5-carboxylic acid] as the compound, how does the “GLP1R cAMP Stimulation DR: pEC50” value read?
The value was 10.1.

Which “GLP1R cAMP Stimulation DR: pEC50” value does the source give for `N#Cc1ccc(Cc2nccc(O[C@H]3CC[C@H](Cc4nc5ccc(C(=O)O)nc5n4C[C@@H]4CCO4)CC3)n2)cc1` [Compound 182a, 3-{[(2S)-oxetan-2-yl]methyl}-2-{[trans-4-({2-[(4-cyanophenyl)methyl]pyrimidin-4-yl}oxy)cyclohexyl]methyl}-3H-imidazo[4,5-b]pyridine-5-carboxylic acid] here?
The value was 10.2.

For `O=C(O)c1ccc2nc(CN3CCC(Oc4nn(Cc5ccc(Cl)cc5F)cc4Cl)CC3)n(C[C@@H]3CCO3)c2n1` [Compound 183a, 2-{[4-({4-chloro-1-[(4-chloro-2-fluorophenyl)methyl]-1H-pyrazol-3-yl}oxy)piperidin-1-yl]methyl}-3-{[(2S)-oxetan-2-yl]methyl}-3H-imidazo[4,5-b]pyridine-5-carboxylic acid], which “GLP1R cAMP Stimulation DR: pEC50” value is on record?
The value was 9.1.

For `O=C(O)c1ccc2nc(CN3CCC(n4ncc5ccc(Cc6ccc(Cl)cc6F)nc54)CC3)n(C[C@@H]3CCO3)c2n1` [Compound 185a, 2-[(4-{6-[(4-chloro-2-fluorophenyl)methyl]-1H-pyrazolo[3,4-b]pyridin-1-yl}piperidin-1-yl)methyl]-3-{[(2S)-oxetan-2-yl]methyl}-3H-imidazo[4,5-b]pyridine-5-carboxylic acid], which “GLP1R cAMP Stimulation DR: pEC50” value is on record?
The value was 9.3.

How did the “GLP1R cAMP Stimulation DR: pEC50” value turn out when `O=C(O)c1ccc2nc(Cc3ccc(Oc4ccnc(Cc5ccc(Cl)cc5)n4)cc3)n(C[C@@H]3CCO3)c2n1` [Compound 186a, 2-{[4-({2-[(4-chlorophenyl)methyl]pyrimidin-4-yl}oxy)phenyl]methyl}-3-{[(2S)-oxetan-2-yl]methyl}-3H-imidazo[4,5-b]pyridine-5-carboxylic acid] was run?
The value was 9.2.

For `O=C(O)c1ccc2nc(Cc3ccc(Oc4ccnc(Cc5ccc(Cl)cc5)n4)cc3)n(C[C@@H]3CCO3)c2c1` [Compound 187a, 2-{[4-({2-[(4-chlorophenyl)methyl]pyrimidin-4-yl}oxy)phenyl]methyl}-1-{[(2S)-oxetan-2-yl]methyl}-1H-1,3-benzodiazole-6-carboxylic acid], which “GLP1R cAMP Stimulation DR: pEC50” value is on record?
The value was 8.9.

With `O=C(O)c1ccc2nc(C[C@H]3CC[C@H](Oc4nc(Cc5ccc(Cl)cc5)ncc4F)CC3)n(C[C@@H]3CCO3)c2n1` [Compound 188a, 3-{[(2S)-oxetan-2-yl]methyl}-2-{[trans-4-({2-[(4-chlorophenyl)methyl]-5-fluoropyrimidin-4-yl}oxy)cyclohexyl]methyl}-3H-imidazo[4,5-b]pyridine-5-carboxylic acid] as the compound, how does the “GLP1R cAMP Stimulation DR: pEC50” value read?
Its value is 10.3.

How did the “GLP1R cAMP Stimulation DR: pEC50” value turn out when `O=C(O)c1ccc2nc(Cc3ccc(Oc4nc(Cc5ccc(Cl)cc5)ncc4F)cc3)n(C[C@@H]3CCO3)c2n1` [Compound 189a, 2-{[4-({2-[(4-chlorophenyl)methyl]-5-fluoropyrimidin-4-yl}oxy)phenyl]methyl}-3-{[(2S)-oxetan-2-yl]methyl}-3H-imidazo[4,5-b]pyridine-5-carboxylic acid] was run?
Its value is 9.2.

How did the “GLP1R cAMP Stimulation DR: pEC50” value turn out when `O=C(O)c1ccc2nc(Cc3ccc(Oc4nc(Cc5ccc(Cl)cc5)ncc4F)cc3F)n(C[C@@H]3CCO3)c2n1` [Compound 190a, 2-{[4-({2-[(4-chlorophenyl)methyl]-5-fluoropyrimidin-4-yl}oxy)-2-fluorophenyl]methyl}-3-{[(2S)-oxetan-2-yl]methyl}-3H-imidazo[4,5-b]pyridine-5-carboxylic acid] was run?
Its value is 9.4.

For `O=C(O)c1ccc2nc(Cc3ccc(Oc4nc(Cc5ccc(Cl)cc5)ncc4F)cc3F)n(C[C@@H]3CCO3)c2c1` [Compound 191a, 2-{[4-({2-[(4-chlorophenyl)methyl]-5-fluoropyrimidin-4-yl}oxy)-2-fluorophenyl]methyl}-1-{[(2S)-oxetan-2-yl]methyl}-1H-1,3-benzodiazole-6-carboxylic acid], which “GLP1R cAMP Stimulation DR: pEC50” value is on record?
Its value is 9.5.

With `O=C(O)c1ccc2nc(CN3CC=C(c4cnc5ccc(Cc6ccc(Cl)cc6F)nn45)CC3)n(C[C@@H]3CCO3)c2n1` [Compound 192a, 2-[(4-{6-[(4-chloro-2-fluorophenyl)methyl]imidazo[1,2-b]pyridazin-3-yl}-1,2,3,6-tetrahydropyridin-1-yl)methyl]-3-{[(2S)-oxetan-2-yl]methyl}-3H-imidazo[4,5-b]pyridine-5-carboxylic acid] as the compound, how does the “GLP1R cAMP Stimulation DR: pEC50” value read?
The value was 6.9.

`O=C(O)c1ccc2nc(CN3CCC(Oc4ccnc(Cc5ccc(Cl)cc5)n4)CC3)n(Cc3cn[nH]c3)c2n1` [Compound 193, 3-((1H-pyrazol-4-yl)methyl)-2-((4-((2-(4-chlorobenzyl)pyrimidin-4-yl)oxy)piperidin-1-yl)methyl)-3H-imidazo[4,5-b]pyridine-5-carboxylic acid] was tested. Which “GLP1R cAMP Stimulation DR: pEC50” value did it give?
Its value is 9.7.

With `CCOCCn1c(CN2CCC(Oc3ccnc(Cc4ccc(Cl)cc4)n3)CC2)nc2ccc(C(=O)O)nc21` [Compound 194, 2-((4-((2-(4-chlorobenzyl)pyrimidin-4-yl)oxy)piperidin-1-yl)methyl)-3-(2-ethoxyethyl)-3H-imidazo[4,5-b]pyridine-5-carboxylic acid] as the compound, how does the “GLP1R cAMP Stimulation DR: pEC50” value read?
Its value is 8.5.

How did the “GLP1R cAMP Stimulation DR: pEC50” value turn out when `COC(C)Cn1c(CN2CCC(Oc3ccnc(Cc4ccc(Cl)cc4)n3)CC2)nc2ccc(C(=O)O)nc21` (centres unmarked) [Compound 195, 2-((4-((2-(4-chlorobenzyl)pyrimidin-4-yl)oxy)piperidin-1-yl)methyl)-3-(2-methoxypropyl)-3H-imidazo[4,5-b]pyridine-5-carboxylic acid] was run?
The value was 9.2.
